# Experimental data: PMC6334511, “Biochemical characterization of the minimal domains of an iterative eukaryotic polyketide synthase” (The Febs Journal, 2018)
# System: ApPKS KS-AT didomain
# Experiment: alpha-ketoglutarate dehydrogenase coupled NADH fluorescence
# Format: biochemical, Anas platyrhynchos
# Conditions: transacylation to ACP1 (AT site), corrected for ACP1 self-acylation; 50 mM sodium phosphate pH 7.6, 10% glycerol, 1 mM TCEP, 1 mM EDTA; read-out: Km (apparent)
row,Km [µM],Compound
1,12.2 ± 3.03,CCC(=O)SCCNC(=O)CCNC(=O)[C@H](O)C(C)(C)COP(=O)(O)OP(=O)(O)OC[C@H]1O[C@@H](n2cnc3c(N)ncnc32)[C@H](O)[C@@H]1OP(=O)(O)O [propionyl-CoA]
2,245 ± 37.7,CC(C(=O)O)C(=O)SCCNC(=O)CCNC(=O)[C@H](O)C(C)(C)COP(=O)(O)OP(=O)(O)OC[C@H]1O[C@@H](n2cnc3c(N)ncnc32)[C@H](O)[C@@H]1OP(=O)(O)O (stereo partly shown) [methylmalonyl-CoA]
3,7.4 ± 0.97,CC(C)(COP(=O)(O)OP(=O)(O)OC[C@H]1O[C@@H](n2cnc3c(N)ncnc32)[C@H](O)[C@@H]1OP(=O)(O)O)[C@@H](O)C(=O)NCCC(=O)NCCSC(=O)CC(=O)O [malonyl-CoA]
4,8.97 ± 1.53,CC(=O)SCCNC(=O)CCNC(=O)[C@H](O)C(C)(C)COP(=O)(O)OP(=O)(O)OC[C@H]1O[C@@H](n2cnc3c(N)ncnc32)[C@H](O)[C@@H]1OP(=O)(O)O [acetyl-CoA]
